How the values were obtained:
[1] = In vitro liver microsomal stability assay (human); assay type: in vitro ADME; settings: human liver microsomes
Method: (§1) Liver microsomal stability assays are conducted at 1 mg per mL liver microsome protein with an NADPH in phosphate buffer (100 mM, pH 7.4). Test compounds (compound of formula B of the invention) are prepared as solutions in 20% methanol-water and added to the assay mixture (final assay concentration 1 μM) and incubated at 37° C. Aliquots (100.μ·L) are taken out at times 0, 15, and 30 minutes, and diluted with ice cold acetonitrile containing IS (200.mu·L) to stop the reactions. Samples are centrifuged at 10,000 RPM for 5 minutes to precipitate proteins. Supernatants are transferred to micro centrifuge tubes and stored at −20° C. for analysis of LC/MS/MS. The percent parent remaining of the test substance is calculated as Ratio of peak area at each time point to peak area ratio at zero min, multiplied by 100. The compound formula (B) is converted to Rivaroxaban in microsomal assay.

[2] = In vitro stability in human plasma; assay type: in vitro ADME
Method: (§2) The final concentration of the test compound in the assay is 5 micromolar. […] C. The 100 microliters of aliquot at time point was removed and diluted with ice cold acetonitrile containing IS (200.mu·L) to stop the reactions. Samples are centrifuged at 10,000 RPM for 5 minutes to precipitate proteins. Supernatants are transferred to micro centrifuge tubes and stored at −20° C. for analysis of LC/MS/MS. The percent parent remaining of the test substance is calculated as ratio of peak area at each time point to peak area ratio at zero min, multiplied by 100.
(§3) API 4000, ESI Agilent 1100 column: Gemini Nx 100 mm×4.6 mm 5.1; column temperature: 30° C.; eluent A: 0.1% formic acid in water, eluent B: acetonitrile; gradient: 0-2.5 min 95% A, 5% B; 2.5-2.6 min 5% A, 95% B; 2.6-4.2 min 95% A, 5% B; flow rate: 0.8 ml/min; ESI. Q1:464.098, Q3:144.255

[3] = In vitro liver microsomal stability assay (mouse); assay type: in vitro ADME; settings: mouse liver microsomes
Method: as §1

[4] = In vitro stability in mouse plasma; assay type: in vitro ADME
Method: as §2, §3

[5] = molecular target: CYP1A2 (Homo sapiens (Human), UniProt P05177); test: CYP inhibition assay; assay type: in vitro ADME; settings: pooled human liver microsomes; extrapolated IC50 derived from 3 μM; read-out: IC50 (μM) of CYP isoforms, 1A2
Sequence of CYP1A2 (P05177 whole entry, canonical isoform): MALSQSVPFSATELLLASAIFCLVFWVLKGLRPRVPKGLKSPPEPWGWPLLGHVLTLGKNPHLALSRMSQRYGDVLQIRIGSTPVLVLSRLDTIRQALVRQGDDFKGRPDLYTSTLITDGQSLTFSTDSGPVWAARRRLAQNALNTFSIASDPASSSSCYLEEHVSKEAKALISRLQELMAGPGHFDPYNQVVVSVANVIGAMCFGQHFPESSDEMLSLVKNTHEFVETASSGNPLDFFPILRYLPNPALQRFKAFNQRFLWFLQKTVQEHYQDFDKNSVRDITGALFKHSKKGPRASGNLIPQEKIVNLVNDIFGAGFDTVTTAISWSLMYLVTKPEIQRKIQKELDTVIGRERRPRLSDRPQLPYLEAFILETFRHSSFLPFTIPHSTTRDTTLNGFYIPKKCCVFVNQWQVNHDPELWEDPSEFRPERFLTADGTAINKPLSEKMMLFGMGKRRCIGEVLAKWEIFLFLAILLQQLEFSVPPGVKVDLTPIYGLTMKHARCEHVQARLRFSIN
Method: (§4) The ability of substances to inhibit CYP1A2, CYP2C9, CYP2D6, CYP2C19, CYP2J2 and CYP3A4 in humans was investigated with pooled human liver microsomes as enzyme source in the presence of standard substrates (see below) which form CYP-isoform-specific metabolites.
(§5) Standard incubation mixtures comprise NADPH and substrates in 100 mM phosphate buffer (pH 7.4) in a total volume of 200 μl. Test compound are dissolved in acetonitrile. Incubated with pooled human liver microsomes at 37° C. for a defined time. The reactions are stopped by adding 100 μl of acetonitrile in which a suitable internal standard is always present. Precipitated proteins are removed by centrifugation, and the supernatants analyzed by LC-MS/MS.

[6] = In vitro stability in rat plasma; assay type: in vitro ADME
Method: as §2, §3

[7] = In vitro liver microsomal stability assay (rat); assay type: in vitro ADME; settings: rat liver microsomes
Method: as §1

[8] = Intravenous and oral excretion profile in Wistar rats; assay type: in vivo; settings: for Mean (ng) Urine: IV 1 mg/Kg, rivaroxaban in urine
Method: On the day before administration of the substance, a catheter for obtaining blood is implanted in the jugular vein of the experimental animals (male Wistar rats, body weight 200-250 g) under Isoflurane. anesthesia.
Urine and faeces are taken collected from metabolic cages over the course of 144 h after administration of the substance. The administration volume is 10 ml/kg for oral and 1 ml/kg for IV in male Wistar rats. Intravenous administration is via a formulation of 2% N—N Dimethyl acetamide/ethanol 10%/PEG400 (30%)/water for IV injection (58%) and via Tween80/PEG400/sterile water in the case of oral administration. Urine and faeces collection is 0-4, 4-8, 8-24, 24-48, 48-72, 72-96, 96-120, 120-144 in the case of IV and for oral administration.
Urine and faeces was processed and IS containing Acetonitrile is added to a defined urine/faeces and precipitated. After centrifugation, compound formula (B) and, where appropriate, known cleavage products of the compound formula (B) in the supernatant are determined quantitatively using a suitable LC/MS-MS method.
The measured urine and faeces concentrations are used to calculate parameters of the test substance and of the active ingredient compound (A) liberated there from, such as AUC and Cmax.
Acetonitrile containing IS is added to the study samples, calibration samples and QCs, and the protein is precipitated using acetonitrile. Vortexed and centrifuged and the supernatant is injected by LC-MS/MS (API 4000, AB Sciex). Chromatographic separation is carried out on an Shimadzu UFLC. The injection volume is 10 μl. The separation column used is a Phenomenex Gemini NX 4.6×5μ. 100 mm, adjusted to a temperature of 30° C. A binary mobile phase gradient at 800.mu·l/min is used (A: 0.1% formic acid in water, B: acetonitrile: API 4000, ESI Agilent 1100 column: Gemini Nx 100 mm×4.6 mm 5.μ; column temperature: 30° C.; eluent A: 0.1% formic acid in water, eluent B: acetonitrile; gradient: 0-2.5 min 95% A, 5% B; 2.5-2.6 min 5% A, 95% B; 2.6-4.2 min 95% A, 5% B; flow rate: 0.8 ml/min; ESI. Q1:464.098, Q3:144.255 The temperature of the Turbo V ion source is 500° C. The following MS instrument parameters are used: curtain gas 20 units, ion spray voltage 5 kV, gas 1 50 units gas 2 50 units, CAD gas 6 units. The substances are quantified by peak heights or areas using extracted ion chromatograms of specific MRM experiments.

[9] = molecular target: CYP2C9 (Homo sapiens (Human), UniProt P11712); test: CYP inhibition assay; assay type: in vitro ADME; settings: pooled human liver microsomes; extrapolated IC50 derived from 3 μM; read-out: IC50 (μM) of CYP isoforms, 2C9
Sequence of CYP2C9 (P11712 whole entry, canonical isoform): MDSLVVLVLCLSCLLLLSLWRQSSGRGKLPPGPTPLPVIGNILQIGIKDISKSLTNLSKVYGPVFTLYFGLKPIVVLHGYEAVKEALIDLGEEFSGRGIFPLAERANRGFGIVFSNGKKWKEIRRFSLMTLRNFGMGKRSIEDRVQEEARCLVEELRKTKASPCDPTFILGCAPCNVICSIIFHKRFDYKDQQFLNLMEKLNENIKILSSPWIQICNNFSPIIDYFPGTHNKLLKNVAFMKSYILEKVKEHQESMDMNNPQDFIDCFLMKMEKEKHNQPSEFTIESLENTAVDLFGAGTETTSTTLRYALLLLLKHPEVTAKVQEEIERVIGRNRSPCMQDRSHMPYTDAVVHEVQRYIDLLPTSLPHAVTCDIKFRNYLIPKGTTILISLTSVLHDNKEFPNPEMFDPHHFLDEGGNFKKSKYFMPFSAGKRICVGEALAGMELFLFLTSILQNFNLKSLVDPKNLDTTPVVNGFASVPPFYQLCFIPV
Method: as §4
as §5, with “LC-MS/MS. The data represents the extrapolated IC50 (μM) concentration derived from 3 μM.” for “LC-MS/MS.”

[10] = molecular target: CYP2D6 (Homo sapiens (Human), UniProt P10635); test: CYP inhibition assay; assay type: in vitro ADME; settings: pooled human liver microsomes; extrapolated IC50 derived from 3 μM; read-out: IC50 (μM) of CYP isoforms, 2D6
Sequence of CYP2D6 (P10635 whole entry, canonical isoform): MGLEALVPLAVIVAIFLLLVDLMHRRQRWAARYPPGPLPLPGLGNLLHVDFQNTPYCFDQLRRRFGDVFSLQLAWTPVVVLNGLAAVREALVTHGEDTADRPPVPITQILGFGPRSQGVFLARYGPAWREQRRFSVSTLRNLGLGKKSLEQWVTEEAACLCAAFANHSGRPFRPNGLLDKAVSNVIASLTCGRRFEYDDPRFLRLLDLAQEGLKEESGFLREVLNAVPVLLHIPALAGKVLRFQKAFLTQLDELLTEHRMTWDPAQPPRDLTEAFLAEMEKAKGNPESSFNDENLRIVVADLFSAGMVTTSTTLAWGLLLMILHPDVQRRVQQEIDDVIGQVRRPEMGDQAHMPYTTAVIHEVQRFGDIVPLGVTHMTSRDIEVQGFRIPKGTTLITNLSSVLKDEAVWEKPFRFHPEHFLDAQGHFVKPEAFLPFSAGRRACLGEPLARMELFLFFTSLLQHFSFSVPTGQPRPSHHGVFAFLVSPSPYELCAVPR
Method: as §4
as §5, with “LC-MS/MS. The data represents the extrapolated IC50 (μM) concentration derived from 3 μM.” for “LC-MS/MS.”

[11] = molecular target: CYP2C19 (Homo sapiens (Human), UniProt P33261); test: CYP inhibition assay; assay type: in vitro ADME; settings: pooled human liver microsomes; extrapolated IC50 derived from 3 μM; read-out: IC50 (μM) of CYP isoforms, 2C19
Sequence of CYP2C19 (P33261 whole entry, canonical isoform): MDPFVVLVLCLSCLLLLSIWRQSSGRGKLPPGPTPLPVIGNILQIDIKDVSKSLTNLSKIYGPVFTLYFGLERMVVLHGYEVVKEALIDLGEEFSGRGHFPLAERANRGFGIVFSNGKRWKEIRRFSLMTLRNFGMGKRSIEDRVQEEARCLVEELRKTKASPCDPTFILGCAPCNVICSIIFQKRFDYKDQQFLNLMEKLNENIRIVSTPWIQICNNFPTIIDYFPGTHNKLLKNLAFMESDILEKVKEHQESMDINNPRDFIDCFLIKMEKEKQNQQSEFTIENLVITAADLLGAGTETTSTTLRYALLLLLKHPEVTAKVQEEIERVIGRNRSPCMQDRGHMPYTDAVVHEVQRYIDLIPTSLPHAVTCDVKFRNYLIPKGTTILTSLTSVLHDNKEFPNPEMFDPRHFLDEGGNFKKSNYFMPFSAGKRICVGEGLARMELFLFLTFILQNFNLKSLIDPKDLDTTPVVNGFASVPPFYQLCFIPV
Method: as §4
as §5, with “LC-MS/MS. The data represents the extrapolated IC50 (μM) concentration derived from 3 μM.” for “LC-MS/MS.”

[12] = molecular target: CYP2J2 (Homo sapiens (Human), UniProt P51589); test: CYP inhibition assay; assay type: in vitro ADME; settings: pooled human liver microsomes; extrapolated IC50 derived from 3 μM
Sequence of CYP2J2 (P51589 whole entry): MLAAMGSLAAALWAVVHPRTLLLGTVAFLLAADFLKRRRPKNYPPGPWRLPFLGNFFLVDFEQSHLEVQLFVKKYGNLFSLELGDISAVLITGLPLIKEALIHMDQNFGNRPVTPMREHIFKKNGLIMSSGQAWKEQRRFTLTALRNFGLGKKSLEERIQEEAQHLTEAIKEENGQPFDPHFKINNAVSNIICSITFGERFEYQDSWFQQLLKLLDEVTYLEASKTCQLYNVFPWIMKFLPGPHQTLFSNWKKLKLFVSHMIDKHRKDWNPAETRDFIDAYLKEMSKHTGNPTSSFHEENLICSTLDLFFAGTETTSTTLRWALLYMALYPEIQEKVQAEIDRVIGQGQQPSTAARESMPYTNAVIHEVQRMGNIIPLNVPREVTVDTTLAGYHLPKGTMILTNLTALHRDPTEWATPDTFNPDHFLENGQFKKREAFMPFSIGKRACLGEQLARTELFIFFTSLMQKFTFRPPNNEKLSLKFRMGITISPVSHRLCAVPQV
Method: as §4
as §5, with “LC-MS/MS. The data represents the extrapolated IC50 (μM) concentration derived from 3 μM.” for “LC-MS/MS.”

% metabolised [1]: 99.99% | Observation (metabolism; for Test Product: of the formed rivaroxaban) [1]: High | % Parent remaining (Human) ([1]; 0 min): 100% | % Parent remaining (Human) ([1]; 15 min): 0.01% | % Parent remaining (Human) ([1]; 30 min): 0.01% | Conversion: unchanged, stable in plasma [2]: 99.99%, | % Parent remaining (Human) ([2]; 0 min): 100% | % Parent remaining (Human) ([2]; 30 min): 100% | % Parent remaining (Human) ([2]; 60 min): 99.68% | % metabolised [3]: 99.98% | Observation (metabolism; for Test Product: of the formed rivaroxaban) [3]: High | % Parent remaining(Mouse) ([3]; 0 min): 100% | % Parent remaining(Mouse) ([3]; 15 min): 0.03% | % Parent remaining(Mouse) ([3]; 30 min): 0.02% | % Parent remaining(Mouse) ([4]; 0 min): 100% | % Parent remaining(Mouse) ([4]; 30 min): 100% | % Parent remaining(Mouse) ([4]; 60 min): 100% | IC50 [5]: 18.9 µM | Conversion: unchanged, stable in plasma [6]: 88.4%, | % Parent remaining(rat) ([6]; 0 min): 100% | % Parent remaining(rat) ([6]; 30 min): 82.35% | % Parent remaining(rat) ([6]; 60 min): 88.4% | % metabolised [7]: 99.98% | Observation (metabolism; for Test Product: of the formed rivaroxaban) [7]: High | % Parent remaining(rat) ([7]; 0 min): 100% | % Parent remaining(rat) ([7]; 15 min): 0.01% | % Parent remaining(rat) ([7]; 30 min): 0.02% | Mean (ng) Urine ([8]; 120 h): BLQ | Mean (ng) Urine ([8]; 144 h): BLQ | concentration at 144 h ([8]; male, Wistar, rat, faeces, iv, 1 mg/kg): 16.8 ng/g | IC50 [9]: 16.7 µM | IC50 [10]: 13.2 µM | IC50 [11]: 13.2 µM | IC50 (μM) of CYP isoforms, 2J2 [12]: No inhibition
SMILES: O=C(NC[C@H]1CN(c2ccc(N3CCOCC3=O)cc2)C(=O)O1)c1ccc(Cl)s1 [Rivaroxaban, 5-chloro-N-({(5S)-2-oxo-3-[4-(3-oxomorpholin-4-yl)phenyl]-1,3-oxazolidin-5-yl}methyl)thiophene-2-carboxamide]

— patent US9359341B2, “Aldehyde derivative of substitute oxazolidinones” (WANBURY LTD., priority 2012, dated 2016)
